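Step 1: Grow cells in 96-well plates. Step 2: Expose to compound for 48 hours at 5 concentrations. Step 3: Interpolate endpoints linearly; if unreached, use highest concentration. The concentration for 50% growth inhibition is given as GI50. Definition used: TGI = concentration required for complete inhibition of growth.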
How the values were obtained:
Assay in all cases: NCI-60 cell line screen, 48 h
SK-OV-3 ovarian = system: SK-OV-3 ovarian
DU-145 prostate = system: DU-145 prostate
KM12 colon = system: KM12 colon
786-0 renal = system: 786-0 renal
MOLT-4 leukemia = system: MOLT-4 leukemia
UACC-257 melanoma = system: UACC-257 melanoma
SF-268 CNS = system: SF-268 CNS
HOP-62 NSCLC = system: HOP-62 NSCLC
A549 NSCLC = system: A549 NSCLC
PC-3 prostate = system: PC-3 prostate
RXF 393 renal = system: RXF 393 renal
SK-MEL-28 melanoma = system: SK-MEL-28 melanoma
HCT-15 colon = system: HCT-15 colon
SNB-19 CNS = system: SNB-19 CNS
U251 CNS = system: U251 CNS
CAKI-1 renal = system: CAKI-1 renal
OVCAR-8 ovarian = system: OVCAR-8 ovarian
RPMI-8226 leukemia = system: RPMI-8226 leukemia
SNB-75 CNS = system: SNB-75 CNS
HL-60(TB) leukemia = system: HL-60(TB) leukemia
SF-295 CNS = system: SF-295 CNS
LOX IMVI melanoma = system: LOX IMVI melanoma
CCRF-CEM leukemia = system: CCRF-CEM leukemia
NCI/ADR-RES ovarian = system: NCI/ADR-RES ovarian
HT29 colon = system: HT29 colon
UO-31 renal = system: UO-31 renal
HS 578T breast = system: HS 578T breast
OVCAR-3 ovarian = system: OVCAR-3 ovarian
SW-620 colon = system: SW-620 colon
OVCAR-5 ovarian = system: OVCAR-5 ovarian
SK-MEL-5 melanoma = system: SK-MEL-5 melanoma
NCI-H460 lung = system: NCI-H460 lung
ACHN renal = system: ACHN renal
IGROV1 ovarian = system: IGROV1 ovarian
NCI-H522 lung = system: NCI-H522 lung
MDA-MB-435 = system: MDA-MB-435
SK-MEL-2 melanoma = system: SK-MEL-2 melanoma
MALME-3M melanoma = system: MALME-3M melanoma
EKVX NSCLC = system: EKVX NSCLC
HCC-2998 colon = system: HCC-2998 colon
COLO 205 colon = system: COLO 205 colon
MCF7 breast = system: MCF7 breast
T-47D breast = system: T-47D breast
NCI-H23 lung = system: NCI-H23 lung
TK-10 renal = system: TK-10 renal
HCT-116 colon = system: HCT-116 colon
SF-539 CNS = system: SF-539 CNS
K-562 leukemia = system: K-562 leukemia
OVCAR-4 ovarian = system: OVCAR-4 ovarian
HOP-92 NSCLC = system: HOP-92 NSCLC
BT-549 breast = system: BT-549 breast

`N#Cc1c(-c2ccccc2)n([O-])c2ccccc2[n+]1=O` was tested, and the GI50 (SK-OV-3 ovarian) was 51.7 µM, the TGI (SK-OV-3 ovarian) was over 100 µM and the GI50 (DU-145 prostate) was 22.4 µM. For the same compound, the TGI (DU-145 prostate) was 51.2 µM, the GI50 (KM12 colon) was 16.2 µM and the TGI (KM12 colon) was 32.2 µM. The GI50 (786-0 renal) was 35.7 µM, the TGI (786-0 renal) was over 100 µM and the GI50 (MOLT-4 leukemia) was 10.2 µM. It also gave a TGI (MOLT-4 leukemia) of 27.2 µM, a GI50 (UACC-257 melanoma) of 21.4 µM and a TGI (UACC-257 melanoma) of 40.1 µM. The GI50 (SF-268 CNS) was 24.8 µM, the TGI (SF-268 CNS) was 63.9 µM and the GI50 (HOP-62 NSCLC) was 20.2 µM. For the same compound, the TGI (HOP-62 NSCLC) was 38.7 µM, the GI50 (A549 NSCLC) was 22 µM and the TGI (A549 NSCLC) was 50.9 µM. It also gave a GI50 (PC-3 prostate) of 26.4 µM, a TGI (PC-3 prostate) of 79.8 µM and a GI50 (RXF 393 renal) of 42.8 µM. It also gave a TGI (RXF 393 renal) of over 100 µM, a GI50 (SK-MEL-28 melanoma) of 65.7 µM and a TGI (SK-MEL-28 melanoma) of over 100 µM. The GI50 (HCT-15 colon) was 21.4 µM, the TGI (HCT-15 colon) was 48.3 µM and the GI50 (SNB-19 CNS) was 67.1 µM. For the same compound, the TGI (SNB-19 CNS) was over 100 µM, the GI50 (U251 CNS) was 24.7 µM and the TGI (U251 CNS) was 60.7 µM. The GI50 (CAKI-1 renal) was 20.1 µM, the TGI (CAKI-1 renal) was 34.7 µM and the GI50 (OVCAR-8 ovarian) was 32.5 µM. The TGI (OVCAR-8 ovarian) was 91.3 µM, the GI50 (RPMI-8226 leukemia) was 21.1 µM and the TGI (RPMI-8226 leukemia) was 42.2 µM. The GI50 (SNB-75 CNS) was 41.1 µM, the TGI (SNB-75 CNS) was over 100 µM and the GI50 (HL-60(TB) leukemia) was 25.2 µM. The TGI (HL-60(TB) leukemia) was 47.9 µM, the GI50 (SF-295 CNS) was 24.4 µM and the TGI (SF-295 CNS) was 56.4 µM. For the same compound, the GI50 (LOX IMVI melanoma) was 18.7 µM, the TGI (LOX IMVI melanoma) was 35.1 µM and the GI50 (CCRF-CEM leukemia) was 22.2 µM. The TGI (CCRF-CEM leukemia) was 46.1 µM, the GI50 (NCI/ADR-RES ovarian) was 21.1 µM and the TGI (NCI/ADR-RES ovarian) was 44.8 µM. For the same compound, the GI50 (HT29 colon) was 38.8 µM, the TGI (HT29 colon) was over 100 µM and the GI50 (UO-31 renal) was 33.9 µM. It also gave a TGI (UO-31 renal) of over 100 µM, a GI50 (HS 578T breast) of 26.8 µM and a TGI (HS 578T breast) of 70 µM. It also gave a GI50 (OVCAR-3 ovarian) of 22.3 µM, a TGI (OVCAR-3 ovarian) of 42.9 µM and a GI50 (SW-620 colon) of 35.3 µM. For the same compound, the TGI (SW-620 colon) was over 100 µM, the GI50 (OVCAR-5 ovarian) was 28.1 µM and the TGI (OVCAR-5 ovarian) was 74.2 µM. It also gave a GI50 (SK-MEL-5 melanoma) of 20.1 µM, a TGI (SK-MEL-5 melanoma) of 38.5 µM and a GI50 (NCI-H460 lung) of 20.7 µM. The TGI (NCI-H460 lung) was 45.9 µM, the GI50 (ACHN renal) was 19.9 µM and the TGI (ACHN renal) was 37.5 µM. For the same compound, the GI50 (IGROV1 ovarian) was 36.9 µM, the TGI (IGROV1 ovarian) was over 100 µM and the GI50 (NCI-H522 lung) was 26.9 µM. It also gave a TGI (NCI-H522 lung) of 75.1 µM, a GI50 (MDA-MB-435) of 19.7 µM and a TGI (MDA-MB-435) of 36.3 µM. It also gave a GI50 (SK-MEL-2 melanoma) of 62.6 µM, a TGI (SK-MEL-2 melanoma) of over 100 µM and a GI50 (MALME-3M melanoma) of 21.3 µM. For the same compound, the TGI (MALME-3M melanoma) was 37.1 µM, the GI50 (EKVX NSCLC) was 28.2 µM and the TGI (EKVX NSCLC) was 58 µM. It also gave a GI50 (HCC-2998 colon) of 17 µM, a TGI (HCC-2998 colon) of 34 µM and a GI50 (COLO 205 colon) of 35.5 µM. The TGI (COLO 205 colon) was over 100 µM, the GI50 (MCF7 breast) was 33.2 µM and the TGI (MCF7 breast) was over 100 µM. The GI50 (T-47D breast) was 30.1 µM, the TGI (T-47D breast) was 83.7 µM and the GI50 (NCI-H23 lung) was 20.3 µM. It also gave a TGI (NCI-H23 lung) of 40.3 µM, a GI50 (TK-10 renal) of 29.4 µM and a TGI (TK-10 renal) of 68.4 µM. The GI50 (HCT-116 colon) was 19.5 µM, the TGI (HCT-116 colon) was 34.8 µM and the GI50 (SF-539 CNS) was 32.1 µM. It also gave a TGI (SF-539 CNS) of 60.8 µM, a GI50 (K-562 leukemia) of 20.6 µM and a TGI (K-562 leukemia) of 37.1 µM. For the same compound, the GI50 (OVCAR-4 ovarian) was 28.8 µM, the TGI (OVCAR-4 ovarian) was 81.8 µM and the GI50 (HOP-92 NSCLC) was 21.8 µM. For the same compound, the TGI (HOP-92 NSCLC) was 45.4 µM, the GI50 (BT-549 breast) was 25.1 µM and the TGI (BT-549 breast) was 57.3 µM.
